The values that follow come from US10478423B2, “Substituted indazole derivatives active as kinase inhibitiors” (NERVIANO MEDICAL SCIENCES S.R.L., priority 2011, dated 2019).

One assay has as its system MOLM-13 cells. The experiment in a line: In vitro cell proliferation assay (CellTiter-Glo), MOLM-13. The class given is cell-based. Particulars: human acute leukemia cells bearing FLT3-ITD mutation, 72 h. As to the method:
(§1) The human acute leukemia MOLM-13 AND MV-4-11 cells, bearing a FLT3-ITD mutation, were seeded (5000 cells/well) in white 384 well-plates in complete medium (RPMI 1640 plus 10% Fetal bovine serum) and treated with compounds dissolved in 0.1% DMSO, 24 h after seeding. The cells were incubated at 37° C. and 5% CO2 and after 72 h the plates were processed using CellTiter-Glo assay (Promega) following the manufacturer's instruction.
(§2) CellTiter-Glo is a homogenous method based on the quantification of the ATP present, an indicator of metabolitically active cells. ATP was quantified using a system based on luciferase and D-luciferin resultant into light generation. The luminescent signal was proportional to the number of cells present in culture.
(§3) Briefly, 25 microL/well reagent solution were added to each well and, after 5 minutes shaking, microplates were read by Envision (PerkinElmer) luminometer. Inhibitory activity was evaluated comparing treated versus control data using Symyx Assay Explorer (Symyx Technologies Inc.) program. IC50 was calculated using sigmoidal interpolation curve.
A general note: In ATP-based viability assays light output follows the ATP content of the culture.

The subject of a further assay is MV-4-11 cells. The experiment in a line: In vitro cell proliferation assay (CellTiter-Glo), MV-4-11. Particulars: MV4-11, human acute leukemia cells bearing FLT3-ITD mutation, 72 h. Format: cell-based. As to the method: as §1, §2, §3

Each structure is given as a SMILES string.

As to `CN(C)c1ccc(C(=O)Nc2n[nH]c3cc(OCc4ccccc4)ccc23)cc1` [Ref. Compound], the IC50 was 3.91 µM in the assay on MOLM-13 cells and 5.54 µM in the assay on MV-4-11 cells.

A word on the IC50: it is the concentration that inhibits the measured activity by half. A low value points to greater potency in that assay.
